The source of these data is patent US7138122B2, “Therapeutic systems” (Enzacta R & D Limited, priority 1997, dated 2006).

One data set concerns the target E. coli nitroreductase (Escherichia coli, UniProt P38489). The settings on record: with respect to CB 1954; NADH as co-substrate; cited from earlier work.
The next data set deals with T1, Rat DT-diaphorase (Rattus norvegicus, UniProt P05982).
T1 sequence (P05982 2-274 limits assumed): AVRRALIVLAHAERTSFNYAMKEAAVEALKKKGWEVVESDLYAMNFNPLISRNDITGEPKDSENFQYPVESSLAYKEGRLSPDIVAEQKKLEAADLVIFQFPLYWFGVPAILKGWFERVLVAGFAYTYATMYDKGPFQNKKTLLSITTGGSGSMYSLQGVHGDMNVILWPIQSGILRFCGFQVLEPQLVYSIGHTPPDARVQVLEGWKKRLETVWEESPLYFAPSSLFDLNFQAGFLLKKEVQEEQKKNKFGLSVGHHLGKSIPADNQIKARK
The note with it: with respect to CB 1954; NADH as co-substrate; cited from earlier work.

Data set [1] has as its system human T98G gliobastoma cells. Kind of data set: Cytotoxicity of CB 1954 on T98G glioblastoma cells with NQO2 co-substrates. The note with it: no co-substrate.
Procedure: Cells in exponential phase of growth were trypsinised, seeded in 96 well plates at a density of 5×10^4 cells per well (100 μl) and permitted to recover for 24 hours. Then 50 μl of medium was removed and replaced with 50 μl of fresh medium containing 200 μM NRH to give a final concentration of 100 μM. Serial dilutions of CB 1954 (8 of 3.66×) were performed in situ giving final concentrations of 1000–0.46 μM. Cells were then incubated with drug for 72 hours at 37° C. The plates were fixed and stained with sulforhodamine-B; the absorption at 590 nm read and results were expressed as percentage of control growth. The IC50 values were evaluated by interpolation.
The cells were treated as for V79 cells but were treated for 144 hr in presence of CB 1954.
A further data set has as its target Human DT-diaphorase (Homo sapiens, UniProt P15559). The settings on record: with respect to CB 1954; NADH as co-substrate; cited from earlier work.
Data set [2] deals with non-transfected V79 cells. The data set can be described thus: Cytotoxicity of CB 1954 with NRH in non-transfected V79 cells. The data set is classed as cell-based, Chinese hamster. The note with it: 100 μM NRH added, 72 hours.
Data set [3] concerns NQO2 expressing V79 cells. The data set can be described thus: Cytotoxicity of CB 1954 with NRH in NQO2-transfected V79 cells. The format is cell-based, Chinese hamster. The note with it: 100 μM NRH added, 72 hours. As for the experimental part: Transfection quality H6 DNA was prepared using the QIAGEN endotoxin-free maxiprep kit. Chinese hamster lung embryo fibroblasts (V79) were transfected with the purified H6 using DOTAP liposomal reagent according to the manufacturer's instructions (Boehringer Mannheim). Two days after transfection puromycin-resistant clones were selected in DMEM/10% FCS containing 10 μg/ml puromycin (Sigma) and grown on to establish cell lines designated V79TM1, 5, 3, 7, 9, 11 and 13 respectively and maintained in selective medium.

In a further data set the target is T2, NQO2 (Homo sapiens, UniProt P16083).
T2 sequence (P16083 1-231): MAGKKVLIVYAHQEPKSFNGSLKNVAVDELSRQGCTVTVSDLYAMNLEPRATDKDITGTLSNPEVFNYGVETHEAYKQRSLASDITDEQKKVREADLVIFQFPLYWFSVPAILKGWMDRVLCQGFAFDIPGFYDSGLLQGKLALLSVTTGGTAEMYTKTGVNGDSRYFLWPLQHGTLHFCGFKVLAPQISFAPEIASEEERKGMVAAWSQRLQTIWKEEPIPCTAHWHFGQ
The data set can be described thus: Co-substrate activity with NQO2 for reduction of CB 1954 (HPLC). The data set is classed as biochemical. More on the design: restriction site were added to the 5′ and 3′-ends of the full-length NQO2 cDNA; made in house; host or cells: E. coli (expression vector pKK233-2, plasmid pKK-hNQO2). As for the experimental part: The effect of various co-substrates on CB 1954 was determined as above but NADH. NADPH or NMNH was substituted for the NRH and CB 1954 was used at a fixed concentration of 100 μM. The enzyme concentration was 5 μg/ml. The reduction of CB 1954 was monitored by measuring both the decrease in its corresponding peak area on the HPLC trace and the increase in the area of the peak corresponding to the reduction product 5-(aziridin-1-yl)-4-hydroxylamino-2-nitrobenzamide. The relative rates of reduction were determined at 10% reduction of CB1954 from a graph plotting CB 1954 reduction against time. The time axis was normalised to the equivalent of 10 μg/ml of NQO2.
The activity of various potential co-substrates was determined by HPLC analysis in the presence of CB1954 and NQO2. To determine the kinetic parameters NQO2 (1 μg/ml) was incubated with NRH (5000 μM) and CB1954 at different concentrations (0.1 to 2 mM) in sodium phosphate buffer (10MM, pH 7) at 37° C. At various times, aliquots (10 μl) were injected onto a Partisphere SCX (250×4.5 mm) HPLC column (Whatman Ltd) and eluted isocratically (1.5 ml/min) with 50 mM aqueous sodium phosphate containing 1% methanol. The eluate was continuously monitored for absorption at 320 nm. […] The reduction of CB1954 was monitored by quantifying the increase in the area of the peak corresponding to the reduction product 5-(aziridin-1-yl)-4-hydroxylamino-2-nitrobenzamide. All the assays were initiated by addition of the enzyme and performed in duplicate. The kinetic parameters were calculated by plotting the initial rate of reduction at each concentration of CB1954 against that concentration and fitting the data to the Michaelis-Menton equation using a computer programme (Fig P). Values were confirmed by transforming the data and fitting it to various linear forms of the equation by regression analysis.
The effect of various co-substrates on CB1954 reduction was determined as above but the co-substrate was substituted for the NRH and C1954 was used at a fixed concentration of 100 μM. The enzyme concentration was 1 or 5 μg/ml. The reduction of CB1954 was monitored by measuring both the decrease in its corresponding peak area on the HPLC trace and the increase in the area of the peak corresponding to the reduction product 5-(aziridin-1-yl)-4-hydroxylamino-2-nitrobenzamide. The relative rates of reduction were determined at 10% reduction of CB1954 from a graph plotting CB1954 reduction against time. The time axis was normalised to the equivalent of 10 μg/ml of NQO2. The kinetic parameters of NQO2 for the various co-substrates was determined as for CB1954 except that the initial concentration of CB1954 was constant at 100 μm whilst that of the co-substrate was varied from 0 to 2 mM. The enzyme concentration was 0.5 μg/ml.

Chain of Human DT-diaphorase (P15559 whole entry): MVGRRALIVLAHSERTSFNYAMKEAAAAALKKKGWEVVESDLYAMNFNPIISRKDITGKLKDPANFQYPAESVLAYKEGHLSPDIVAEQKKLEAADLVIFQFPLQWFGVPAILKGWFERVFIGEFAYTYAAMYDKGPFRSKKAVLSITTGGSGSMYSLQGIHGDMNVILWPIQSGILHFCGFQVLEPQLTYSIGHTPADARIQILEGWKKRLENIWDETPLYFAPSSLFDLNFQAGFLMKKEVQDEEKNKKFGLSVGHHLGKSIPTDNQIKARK
Chain of E. coli nitroreductase (P38489 whole entry): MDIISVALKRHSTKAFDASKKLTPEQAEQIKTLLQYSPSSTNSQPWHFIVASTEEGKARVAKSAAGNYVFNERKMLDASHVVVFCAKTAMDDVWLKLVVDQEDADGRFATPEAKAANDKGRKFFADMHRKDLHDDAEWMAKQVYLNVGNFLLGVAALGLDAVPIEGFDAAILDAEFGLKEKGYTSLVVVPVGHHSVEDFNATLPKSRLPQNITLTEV

With `NC(=O)c1cc(N2CC2)c([N+](=O)[O-])cc1[N+](=O)[O-]` [CB 1954, 5-(aziridin-1-yl)-2,4-dinitrobenzamide], the kcat (as a rule, the maximal rate divided by the concentration of active sites) is 6.0 s⁻¹ on E. coli nitroreductase, 0.0683 s⁻¹ on Rat DT-diaphorase and 0.0107 s⁻¹ on Human DT-diaphorase. The Km – broadly, the substrate concentration at which the rate is half of its maximum – on Rat DT-diaphorase was 826 µM; at Human DT-diaphorase, 1400 µM. For the same compound, the “toxicity of CB1954 alone” value in data set [1] was “not toxic”.
On to `NC(=O)C1=CN([C@@H]2O[C@H](CO)[C@@H](O)[C@H]2O)C=CC1` [NRH, dihydronicotinamide riboside], for which the “increase of the cytotoxicity of CB 1954” value is on record as less than 3 fold in data set [2]; “greater than 100 fold” in data set [3] (V79TM5 and 13 cell lines); “at least 100 fold” in data set [3] (V79TM13 cells). Further, the “RELATIVE RATE OF REDUCTION” value on NQO2 (CB 1954 reduction by NQO2, co-substrate initial 500 μM, CB 1954 initial 100 μM) amounted to 70.0. Also, the Km on NQO2 (of NQO2 for the co-substrate, CB1954 as electron acceptor (100 μM)) came to 28 ± 2 µM. Besides, the kcat at NQO2 (of NQO2 with the co-substrate, CB1954 as electron acceptor) was 6 s⁻¹.
